Assay results taken from US20240307397A1, “PHARMACEUTICAL COMPOSITION COMPRISING PI3K AND DNA-PK DUAL INHIBITOR FOR PREVENTING OR TREATING PERIPHERAL T CELL LYMPHOMA” (BORYUNG CORPORATION, priority 2021, published 2024).

Columns and labels:
[1] = test system: subjects with advanced hematologic malignancies; assay: Phase Ia dose escalation clinical trial: safety, tolerability, DLT and MTD/RP2D; assay type: in vivo
Description: The phase Ia part (dose escalation) of this clinical trial is designed to determine safety, tolerability, and maximum tolerated dose (MTD)/starting dose (RP2D) for clinical phase Ib/II of the test drug in subjects with relapsed/refractory B-cell lymphoma, chronic lymphocytic leukemia (CLL)/small lymphocytic leukemia (SLL) and peripheral T-cell lymphoma (PTCL).
A method for escalating a dose during the treatment period (phase Ia part) is as follows. At least of 1 and up to 6 subjects may be enrolled in cohorts 1 and 2. 3 to 6 subjects may be enrolled into subsequent cohorts.
(2) Cohort 3 and all subsequent cohorts will follow the standard 3+3 design. […] If 1 of the 3 subjects experiences a DLT, that dose level will be expanded to 6 subjects (3 additional subjects will be enrolled). If 2 subjects at a given dose level experience a DLT, the maximum tolerated dose (MTD) will have been exceeded and further accrual to the cohort will be terminated. The next lower dose level will be expanded to 6 subjects or if 6 subjects have already been enrolled and no more than 1 of the 6 experienced a DLT, then this lower dose level will be considered the MTD (FIG. 3).
The dose limiting toxicity (DLT) in this clinical trial may include the followings:
1) Assessed by adverse events, vital signs, electrocardiogram (ECG), clinical laboratory tests, physical examination, ECOG performance status up to the last Safety Follow-up Visit, and baseline medical conditions.
2) Tolerability assessment includes review of dose interruptions, reductions, and doses administered up to the last Safety Follow-up Visit.
3) Determination of the maximum tolerated dose (MTD) and the starting dose (RP2D) for clinical phase Ib/II are based on dose limiting toxicity (DLT) during Cycle 1.
The number and proportion of subjects experiencing the dose limiting toxicity (DLT) are summarized based on the dose-limiting toxicity evaluable set. […] Estimation of maximum tolerated dose (MTD)/recommended dose for clinical phase Ib/II (RP2D) are based upon the methods for determination of MTD/RP2D provided herein (see 3. Overall design, 2) How to escalate dose of test drug).
A treatment emergent adverse event (TEAE) is defined as any AE that occurs after the first administration of the test drug through 30 days after the last administration of the test drug, or any event that is present at baseline but worsens in severity. […] All the adverse events and toxicities are graded according to CTCAE (version 5.0). Analysis may include, but is not limited to, the followings: […]

[2] = test system: advanced hematologic malignancies (PTCL, DLBCL, MZL, CTCL-MF); assay: Phase Ia clinical trial: tumor response assessment; assay type: in vivo, humans
Experimental: 1) Tumor response is assessed for both phases la and Ib. The anticancer activity of the test drug is assessed by applying various criteria through imaging tests every two cycles of clinical trials and at the end of therapy (EOT) (optional) (see table 14 for disease assessment criteria below), or for liquid tumors, bone marrow aspirates/biopsies and blood assessments are performed. Tumor response parameters that are assessed include the following: (1) Best overall response: complete response (CR), partial response (PR), stable disease (SD, lasting 12 weeks), or disease progression (DP) Details of the disease assessment criteria and the tools used to determine efficacy parameters are as follows (Table 14). The tumor response (lymphoma (B-cell and T-cell), CLL/SLL, Waldenstrom macroglobulinemia) following administration of the test drug in phases Ia and Ib is assessed using the criteria in table 14. Tumor response parameters vary according to the above applied criteria and may include the followings: The best overall response is defined as the best response across all time points (in the order of CR, PR, SD, and DP) post-treatment. The best overall response (CR, PR, SD, or DP) is summarized by number of subjects and percentages. In the case of best response equal to SD, the minimum duration for SD should be met. For the purpose of calculating an SD rate, the rate will be the percentage (%) of subjects who continue to have SD for at least 12 weeks.

[3] = Plasma pharmacokinetic analyses in clinical trial subjects (C1D1, C1D15); assay type: in vivo, humans
Description: 1) Plasma concentration-time profile of the test drug (days 1 and 15), urine concentration data (day 15), and derived single dose plasma PK and multiple dose plasma and urine PK parameters (if applicable). • Blood samples are collected according to a predetermined schedule to measure a plasma concentration of the test drug (Table 5). In phase Ia clinical trials, entire urine needs to be collected over each dosing interval according to a pre-determined schedule, starting after dose administration (Table 5).
• Samples for the determination of the test drug in plasma and urine are analyzed using appropriate validated bioanalytical methods. • Pharmacokinetic parameters are derived using noncompartmental methods with Phoenix® WinNonlin® Version 8.0 or higher (Certara, L.P. Princeton, New Jersey, USA) and/or SAS® Version 9.2 or higher (SAS Institute, Inc., Cary, North Carolina, USA). Actual elapsed time from dosing will be used for the final plasma PK parameter calculations. A minimum of 3 quantifiable postdose concentrations will be required for all calculations. • The PK parameters to be determined for plasma concentration of the test drug on day 1 of cycle 1 and day 15 of cycle 1, if calculable, include but not be limited to the following parameters presented table 6.
Plasma concentrations and PK parameters of the test drug are listed and summarized by dose, cycle, and clinical trial phase using descriptive statistics.
On the day 1 of cycle 1 (C1D1), plasma samples for pharmacokinetic analyses in clinical trial subjects were obtained before and after administration of the test drug (0.5, 1, 1.5, 2, 3, 4, 6, 9, 12 and 24 hours). As a result of the collected pharmacokinetic analyses, it was confirmed that a maximum plasma concentration after a single dose of 50 mg QD, 100 mg QD and 200 mg QD of the test drug ranged […], and a systemic exposure (based on AUC0-24) ranged from 2760 to 21850 ng*h per mL.

[4] = test system: regulatory T cells (Tregs); assay: Whole blood flow-cytometry pharmacodynamics, regulatory T cells; assay type: in vivo, humans; conditions: as plasma concentration of the test drug increased (FIG. 6A)
Experimental: (§1) Blood samples for pharmacodynamic analyses of the test drug were collected in phase Ia (dose escalation part). Whole blood samples were evaluated by flow-cytometry after coimmunostaining for CD3^+, CD4^+, CD25^+, CD127low and CD8^+. Through this, we tried to observe the effects of the test drug on regulatory T cells (Tregs) and CD8^+ T cells.

CD8+ T cells = assay: Whole blood flow-cytometry pharmacodynamics, CD8+ T cells; assay type: in vivo, humans; conditions: as plasma concentration of the test drug increased (FIG. 6B)
Experimental: as §1

[5] = of 11 clinical trial subjects, oral QD
[6] = 11 of 12 subjects enrolled in phase Ia assessed
[7] = multiple dosing (C1D15), 50 mg to 200 mg cohort

C[C@H](Nc1ncnc2[nH]ccc(=O)c12)c1c(Cl)c2cccc(Cl)c2c(=O)n1-c1ccccc1 [test drug, 4-[[(1S)-1-(4,8-dichloro-1-oxo-2-phenyl-3-isoquinolyl)ethyl]amino]-8H-pyrido[2,3-d]pyrimidin-5-one]
dose limiting toxicities (DLTs) observed ([1]; cohort 4, 325 mg QD): two | serious adverse events rated as grades 3 (severe) to 5 (death) ([1]; cohorts 1 to 3 (50, 100, 200 mg QD)): no serious adverse events | subjects with TEAEs evaluated to be related to the test drug ([1]; cohorts 1 to 3 (50, 100, 200 mg QD), 3 of 5 subjects): 60.0% | subjects with treatment-emergent adverse events (TEAEs) ([1]; cohorts 1 to 3 (50, 100, 200 mg QD), 4 out of 5 subjects): 80.0% | administration-related deaths ([1]; cohorts 1 to 3, 5 subjects): no administration-related deaths occurred | subjects with TEAE of grade 1 (mild) ([1]; cohorts 1 to 3, 5 subjects): 1 subject | subjects with TEAE of grade 2 (moderate) ([1]; cohorts 1 to 3, 5 subjects): 2 subjects | subjects with TEAE of grade 4 (life-threatening) ([1]; cohorts 1 to 3, 5 subjects, thrombocytopenia, not related to the test drug): 1 subject | dose limiting toxicity (DLT) ([1]; dose range of cohorts 1 to 3 (50, 100, 200 mg QD)): no dose limiting toxicity | tolerability ([1]; dose range up to 200 mg QD): excellent | dose limiting toxicity (DLT) ([1]; expansion cohort 200 mg QD, 6 subjects): No dose limiting toxicity | subjects showing grade 3 skin reaction [1, 5]: 2 subjects | subjects showing hepatotoxicity [1, 5]: 3 subjects | maximum tolerated dose (MTD) ([1]; oral, 28-day cycle, phase Ia): 200 mg QD | recommended starting dose (RP2D) for clinical phase Ib/II ([1]; recommended by the Safety Monitoring Committee): 200 mg QD | outcome of adverse events (skin reaction, hepatotoxicity) ([1]; upon discontinuation of the test drug): manageable and recovered to grade 0 or 1 | complete response (CR) ([2]; 8 subjects diagnosed with PTCL): 1 subject | disease control rate (DCR) ([2]; 8 subjects diagnosed with PTCL): 87.5% | disease progression (PD) ([2]; 8 subjects diagnosed with PTCL): 1 subject | partial responses (PR) ([2]; 8 subjects diagnosed with PTCL): 2 subject | complete response (CR) [2, 6]: 1 subject | disease progression (PD) [2, 6]: 2 subjects | partial response (PR) [2, 6]: 2 subjects | activity in peripheral T-cell lymphoma (PTCL) subjects ([2]; PTCL subjects, phase Ia): preliminary activity | dose dependence of exposure concentration ([3]; C1D1, dose range of 50 mg to 200 mg (FIG. 4)): increased in a dose-dependent manner | maximum plasma concentration ([3]; C1D1, single dose of 50, 100 and 200 mg QD, plasma): ≤ 2443 ng/mL | increase in exposure based on AUCtau [3, 7]: ~4.97 fold | increase in exposure based on Cmax [3, 7]: ~2.92 fold | dose dependence of exposure concentration ([3]; multiple dosing (C1D15), dose range of 50 mg to 200 mg (FIG. 5)): increased in a dose-dependent manner | accumulation ([3]; multiple dosing, dose range of 50 mg to 200 mg): no accumulation observed | change of regulatory T cells (Tregs) compared to the baseline value [4]: decreased | change of CD8+ T cells compared to the baseline value (CD8+ T cells): increased
